Assay results reported in the NIST ThermoML archive (doi:10.1021/acs.jced.8b00662).

Test: xn = mol fraction of the nth substance listed
Settings: 100 kPa, Liquid; for mass density: Vibrating tube method; for viscosity: Falling or rolling sphere viscometry

OCC1CC1 [cyclopropylmethanol] + c1ccc2c(c1)CCCC2
Settings | mass density [kg/m3] | viscosity [mPa·s]
318.15 K, x2 = 0 | 892.38 | –
318.15 K, x2 = 0.0993 | 900.96 | –
318.15 K, x2 = 0.1972 | 908.2 | –
318.15 K, x2 = 0.3008 | 914.89 | –
318.15 K, x2 = 0.3978 | 920.7 | –
318.15 K, x2 = 0.4986 | 926.13 | –
318.15 K, x2 = 0.6031 | 931.29 | –
318.15 K, x2 = 0.7031 | 935.88 | –
318.15 K, x2 = 0.7981 | 939.99 | –
318.15 K, x2 = 0.901 | 944.36 | –
323.15 K, x2 = 0 | 888.17 | 1.825
323.15 K, x2 = 0.0993 | 896.69 | 1.644
323.15 K, x2 = 0.1972 | 903.9 | 1.517
323.15 K, x2 = 0.3008 | 910.59 | 1.423
323.15 K, x2 = 0.3978 | 916.41 | 1.355
323.15 K, x2 = 0.4986 | 921.85 | 1.305
323.15 K, x2 = 0.6031 | 927.06 | 1.271
323.15 K, x2 = 0.7031 | 931.69 | 1.254
323.15 K, x2 = 0.7981 | 935.85 | 1.235
323.15 K, x2 = 0.901 | 940.3 | 1.263
328.15 K, x2 = 0 | 883.86 | 1.629
328.15 K, x2 = 0.0993 | 892.34 | 1.476
328.15 K, x2 = 0.1972 | 899.54 | 1.369
328.15 K, x2 = 0.3008 | 906.23 | 1.291
328.15 K, x2 = 0.3978 | 912.06 | 1.22
328.15 K, x2 = 0.4986 | 917.54 | 1.195
328.15 K, x2 = 0.6031 | 922.78 | 1.169
328.15 K, x2 = 0.7031 | 927.49 | 1.156
328.15 K, x2 = 0.7981 | 931.68 | 1.157
328.15 K, x2 = 0.901 | 936.23 | 1.174
333.15 K, x2 = 0 | 879.52 | 1.46
333.15 K, x2 = 0.0993 | 887.95 | 1.331
333.15 K, x2 = 0.1972 | 895.13 | 1.241
333.15 K, x2 = 0.3008 | 901.83 | 1.176
333.15 K, x2 = 0.3978 | 907.69 | 1.131
333.15 K, x2 = 0.4986 | 913.2 | 1.1
333.15 K, x2 = 0.6031 | 918.5 | 1.08
333.15 K, x2 = 0.7031 | 923.23 | 1.071
333.15 K, x2 = 0.7981 | 927.51 | 1.076
333.15 K, x2 = 0.901 | 932.14 | 1.094
338.15 K, x2 = 0 | 875.1 | 1.316
338.15 K, x2 = 0.0993 | 883.49 | 1.205
338.15 K, x2 = 0.1972 | 890.66 | 1.13
338.15 K, x2 = 0.3008 | 897.37 | 1.078
338.15 K, x2 = 0.3978 | 903.28 | 1.041
338.15 K, x2 = 0.4986 | 908.82 | 1.015
338.15 K, x2 = 0.6031 | 914.15 | 1.004
338.15 K, x2 = 0.7031 | 918.94 | 0.996
338.15 K, x2 = 0.7981 | 923.3 | 1.003
338.15 K, x2 = 0.901 | 928.03 | 1.024
343.15 K, x2 = 0 | 870.62 | 1.19
343.15 K, x2 = 0.0993 | 878.98 | 1.095
343.15 K, x2 = 0.1972 | 886.15 | 1.033
343.15 K, x2 = 0.3008 | 892.87 | 0.99
343.15 K, x2 = 0.3978 | 898.8 | 0.961
343.15 K, x2 = 0.4986 | 904.39 | 0.941
343.15 K, x2 = 0.6031 | 909.78 | 0.933
343.15 K, x2 = 0.7031 | 914.63 | 0.931
343.15 K, x2 = 0.7981 | 919.07 | 0.941
343.15 K, x2 = 0.901 | 923.91 | 0.961
